pIC50: −log10 of the molar value. Bounds are passed on as bounds.

One test has as its target MCH receptor (Homo sapiens, UniProt Q99705). As to the kind of experiment: High throughput functional screening FLIPR/FDSS6000: inhibition of MCH-evoked intracellular Ca2+ changes. In kind it is cell-based. The note with it: class by percent of control at 10^-7 M or IC50. A digest of the protocol: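 In a kinetic calcium-flux format, compounds were tested at various concentrations against 50 nM MCH. Fluo4-loaded cells expressing a constitutively active, non-endogenous receptor were imaged at 488/530 nm for 290 s after agonist addition.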
As to `COc1cccc(NC(=O)NC[C@H]2CC[C@@H](Nc3nc(N(C)C)c4ccccc4n3)CC2)c1` [compound 447, N-[(cis-4-{[4-(dimethylamino)quinazolin-2-yl]amino}cyclohexyl)methyl]-N′-(3-methoxyphenyl)urea], the class is recorded as 2 (Class 2: The value of percent of control at 10^−7 M was from 40% to 60% or the value of IC50 was from 50 nM to 200 nM.). With `CN(C)c1nc(N[C@H]2CC[C@@H](CNC(=S)Nc3cc(Cl)ccc3Cl)CC2)nc2ccccc12` [compound 592], the class was 3 (Class 3: The value of percent of control at 10^−7 M was more than 60% or the value of IC50 was more than 200 nM.). As to `COc1cc(NC(=S)N[C@H]2CC[C@@H](Nc3nc(N(C)C)c4ccccc4n3)CC2)cc(OC)c1` [compound 259], the class is 2 (Class 2: The value of percent of control at 10^−7 M was from 40% to 60% or the value of IC50 was from 50 nM to 200 nM.).

As to `CN(C)c1nc(N[C@H]2CC[C@@H](CNC(=S)Nc3ccc(OCc4ccccc4)cc3)CC2)nc2ccccc12` [compound 690], the class is 3 (Class 3: The value of percent of control at 10^−7 M was more than 60% or the value of IC50 was more than 200 nM.). On the same count and under the same terms, with `CN(C)c1nc(N[C@H]2CC[C@@H](NC(=S)Nc3ccc(Sc4ccc([N+](=O)[O-])cc4)cc3)CC2)nc2ccccc12` [compound 318] the figure was 3 (Class 3: The value of percent of control at 10^−7 M was more than 60% or the value of IC50 was more than 200 nM.); with `CC(C)c1cc(Br)c(NC(=O)NC[C@H]2CC[C@@H](Nc3nc(N(C)C)c4ccccc4n3)CC2)c(Br)c1` [compound 759, N-(2,6-dibromo-4-isopropylphenyl)-N′-[(cis-4-{[4-(dimethylamino)quinazolin-2-yl]amino}cyclohexyl)methyl]urea], 2 (Class 2: The value of percent of control at 10^−7 M was from 40% to 60% or the value of IC50 was from 50 nM to 200 nM.). With `C#CCNC(=S)N[C@H]1CC[C@@H](Nc2nc(N(C)C)c3ccccc3n2)CC1` [compound 356], the class is 3 (Class 3: The value of percent of control at 10^−7 M was more than 60% or the value of IC50 was more than 200 nM.). Regarding `CSc1cccc(NC(=S)NC[C@H]2CC[C@@H](Nc3nc(N(C)C)c4ccccc4n3)CC2)c1` [compound 681], the class is 3 (Class 3: The value of percent of control at 10^−7 M was more than 60% or the value of IC50 was more than 200 nM.). Still for that read-out and setting: with `CN(C)c1nc(N[C@H]2CC[C@@H](CNC(=O)Nc3c(Cl)cc(Cl)cc3Cl)CC2)nc2ccccc12` [compound 463, N-[(cis-4-{[4-(dimethylamino)quinazolin-2-yl]amino}cyclohexyl)methyl]-N′-(2,4,6-trichlorophenyl)urea] the figure was 1 (Class 1: The value of percent of control at 10^−7 M was less than 40% or the value of IC50 was less than 50 nM.); with `COc1ccc([N+](=O)[O-])cc1NC(=S)NC[C@H]1CC[C@@H](Nc2nc(N(C)C)c3ccccc3n2)CC1` [compound 725], 2 (Class 2: The value of percent of control at 10^−7 M was from 40% to 60% or the value of IC50 was from 50 nM to 200 nM.). Same read-out and setting: with `CCN(CC)c1ccc(NC(=S)N[C@H]2CC[C@@H](Nc3nc(N(C)C)c4ccccc4n3)CC2)cc1` [compound 393] the figure was 3 (Class 3: The value of percent of control at 10^−7 M was more than 60% or the value of IC50 was more than 200 nM.); with `Cc1onc(-c2ccccc2)c1NC(=O)N[C@H]1CC[C@@H](Nc2nc(N(C)C)c3ccccc3n2)CC1` [compound 355, N-(cis-4-{[4-(dimethylamino)quinazolin-2-yl]amino}cyclohexyl)-N′-(5-methyl-3-phenylisoxazol-4-yl)urea], 1 (Class 1: The value of percent of control at 10^−7 M was less than 40% or the value of IC50 was less than 50 nM.); with `CN(C)c1nc(N[C@H]2CC[C@@H](CNC(=S)Nc3c(Cl)cc(Cl)cc3Cl)CC2)nc2ccccc12` [compound 670, N-[(cis-4-{[4-(dimethylamino)quinazolin-2-yl]amino}cyclohexyl)methyl]-N′-(2,4,6-trichlorophenyl)thiourea], 2 (Class 2: The value of percent of control at 10^−7 M was from 40% to 60% or the value of IC50 was from 50 nM to 200 nM.). Consider `Cc1cc(F)ccc1NC(=S)N[C@H]1CC[C@@H](Nc2nc(N(C)C)c3ccccc3n2)CC1` [compound 316, N-(cis-4-{[4-(dimethylamino)quinazolin-2-yl]amino}cyclohexyl)-N′-(4-fluoro-2-methylphenyl)thiourea], for which the class is 1 (Class 1: The value of percent of control at 10^−7 M was less than 40% or the value of IC50 was less than 50 nM.).

Staying with this test, now noted: class by percent of control at 10^-7 M or by IC50; read-out: class.
For the compound `CN(C)c1nc(N[C@H]2CC[C@@H](NC(=S)NCc3ccccc3)CC2)nc2ccccc12` [compound 156], the pIC50 was under 6.70.

For `CN(C)c1nc(N[C@H]2CC[C@@H](NC(=O)Nc3ccccc3Cl)CC2)nc2ccccc12` [compound 18, N-(2-chlorophenyl)-N′-(cis-4-{[4-(dimethylamino)quinazolin-2-yl]amino}cyclohexyl)urea], the pIC50 was over 7.30. On the same count and under the same terms, with `COc1ccc(-c2ccccc2)cc1NC(=S)N[C@H]1CC[C@@H](Nc2nc(N(C)C)c3ccccc3n2)CC1` [compound 179, N-(cis-4-{[4-(dimethylamino)quinazolin-2-yl]amino}cyclohexyl)-N′-(4-methoxybiphenyl-3-yl)thiourea] the figure was 6.70 to 7.30.

Regarding `COc1ccccc1NC(=S)N[C@H]1CC[C@@H](Nc2nc(N(C)C)c3ccccc3n2)CC1` [compound 185, N-(cis-4-{[4-(dimethylamino)quinazolin-2-yl]amino}cyclohexyl)-N′-(2-methoxyphenyl)thiourea], the pIC50 was over 7.30.

With `Cc1ccc(F)cc1NC(=O)N[C@H]1CC[C@@H](Nc2nc(N(C)C)c3ccccc3n2)CC1` [compound 838, N-(cis-4-{[4-(dimethylamino)quinazolin-2-yl]amino}cyclohexyl)-N′-(5-fluoro-2-methylphenyl)urea], the pIC50 was 6.70 to 7.30. Consider `CN(C)c1nc(N[C@H]2CC[C@@H](NC(=O)NC3CCCCC3)CC2)nc2ccccc12` [compound 16, N-cyclohexyl-N′-(cis-4-{[4-(dimethylamino)quinazolin-2-yl]amino}cyclohexyl)urea], for which the pIC50 is 6.70 to 7.30. For the compound `Cc1ccccc1NC(=S)N[C@H]1CC[C@@H](Nc2nc(N(C)C)c3ccccc3n2)CC1` [compound 198], the pIC50 is under 6.70. As for `CN(C)c1nc(N[C@H]2CC[C@@H](NC(=O)Nc3ccc(Cl)cc3)CC2)nc2ccccc12` [compound 15], the pIC50 was under 6.70.

On to `CN(C)c1nc(N[C@H]2CC[C@@H](CNC(=S)NCCCN3CCOCC3)CC2)nc2ccccc12` [compound 810], for which the pIC50 was under 6.70.

In the case of `CC(C)c1ccccc1NC(=O)N[C@H]1CC[C@@H](Nc2nc(N(C)C)c3ccccc3n2)CC1` [compound 103, N-(cis-4-{[4-(dimethylamino)quinazolin-2-yl]amino}cyclohexyl)-N′-(2-isopropylphenyl)urea], the pIC50 is over 7.30. On the same count and under the same terms, the result for `CN(C)c1nc(N[C@H]2CC[C@@H](NC(=S)Nc3cc(Cl)ccc3Cl)CC2)nc2ccccc12` [compound 168] reads under 6.70.

The test is the same for the next values; noted with them: class by percent of control at 10^−7 M or by IC50; read-out: class.
Turning to `CN(C)c1nc(N[C@H]2CC[C@@H](CNC(=O)C(O)c3ccc(Br)cc3)CC2)nc2ccccc12` (relative stereo) [Example 1098, 2-(4-bromophenyl)-N-[(cis-4-{[4-(dimethylamino)quinazolin-2-yl]amino}cyclohexyl)methyl]-2-hydroxyacetamide], the pIC50 is under 6.70. On the same count and under the same terms, the result for `Cc1ccc(F)cc1CNC(=O)[C@H]1CC[C@@H](Nc2nc(N(C)C)c3ccccc3n2)CC1` [Example 1146, cis-4-{[4-(dimethylamino)quinazolin-2-yl]amino}-N-(5-fluoro-2-methylbenzyl)cyclohexanecarboxamide] reads over 7.30; that for `CN(C)c1nc(N[C@H]2CC[C@@H](C(=O)NCc3cc(C(F)(F)F)cc(C(F)(F)F)c3)CC2)nc2cc(F)c(F)cc12` [Example 1005, cis-N-[3,5-bis(trifluoromethyl)benzyl]-4-{[4-(dimethylamino)-6,7-difluoroquinazolin-2-yl]amino}cyclohexanecarboxamide], under 6.70.

`CN(C)c1nc(N[C@H]2CC[C@@H](C(=O)NCc3ccc(F)cc3C(F)(F)F)CC2)nc2ccccc12` [Example 1174, cis-4-{[4-(dimethylamino)quinazolin-2-yl]amino}-N-[4-fluoro-2-(trifluoromethyl)benzyl]cyclohexanecarboxamide]: the pIC50 is over 7.30. Turning to `CN(C)c1nc(N[C@H]2CC[C@@H](CNC(=O)c3ccc(C(F)(F)F)c(F)c3)C2)nc2ccccc12` [Example 1124, N-[((1R,3S)-3-{[4-(dimethylamino)quinazolin-2-yl]amino}-cyclopentyl)methyl]-3-fluoro-4-(trifluoromethyl)benzamide], the pIC50 was under 6.70. With `CN(C)c1nc(N[C@H]2CC[C@@H](C(=O)NCc3ccc(Cl)cc3)CC2)nc2ccccc12` [Example 1155, cis-N-(4-chlorobenzyl)-4-{[4-(dimethylamino)quinazolin-2-yl]amino}cyclohexanecarboxamide], the pIC50 is over 7.30. On the same count and under the same terms, the result for `COc1cccc([C@@H](C)NC(=O)[C@H]2CC[C@@H](Nc3nc(N(C)C)c4ccccc4n3)CC2)c1` [Example 1137, cis-4-{[4-(dimethylamino)quinazolin-2-yl]amino}-N-[(1R)-1-(3-methoxyphenyl)ethyl]cyclohexanecarboxamide] reads over 7.30; that for `CN(C)c1nc(N[C@H]2CC[C@@H](C(=O)NCc3ccc(C(F)(F)F)cc3)CC2)nc2ccccc12` [Example 1153, cis-4-{[4-(dimethylamino)quinazolin-2-yl]amino}-N-[4-(trifluoromethyl)benzyl]cyclohexanecarboxamide], over 7.30; that for `CCOc1ccccc1NC(=O)NC[C@H]1CC[C@@H](Nc2nc(N(C)C)c3ccccc3n2)CC1` [Example 1016, N-[(cis-4-{[4-(dimethylamino)quinazolin-2-yl]amino}cyclohexyl)methyl]-N′-(2-ethoxyphenyl)urea], 6.70 to 7.30.
